Experimental data: patent US7829277B2, “Methods for identifying compounds that suppress chemically-induced carcinogenesis” (The Regents of the University of California, priority 2004, dated 2010)

Assays:
[1] = system: PC3 prostate cancer cells; conditions: PC3 prostate cancer cells treated with genistein; cited from earlier work
[2] = system: nucleus; conditions: after 18 hours of incubation; cited from earlier work
[3] = system: malignant prostate epithelial cells (RWPE-2); experiment: Microarray gene expression profile (Affymetrix Human Genome U133A) after lunasin treatment; type: cell-based
Procedure: (§1) Rostate epithelial cells, RWPE-1 (normal) and RWPE-2 (malignant) were cultivated in the Keratinocyte-Serum free medium with 5 ng/ml rEGF and 0.05 mg/ml bovine pituitary extract. Cells were grown to 70% confluence, after which, cells were harvested and transferred to a 150 mm^2 plate at a cell density of 1×10^7 cells/ml. Lunasin peptide was added to a final concentration of 2 μM. The cells were incubated for 24 hours after lunasin treatment. […] RWPE-1 and RWPE-2 cells that were not treated with lunasin served as negative controls.
(§2) Microarrray analysis. Total RNA from each treatment was isolated by Trizol (Invitrogen, Carlsbad, Calif.). The cDNA used in microarray analysis was synthesized from 10 μg of total RNA using the SuperScript Choice system (Invitrogen). The cDNA was then transcribed in vitro in the presence of biotin-labeled nucleotide triphophates using T7 RNA polymerase after phenol-chloroform extraction and ethanol precipitation. cRNA was purified using the RNeasy mini kit (Qiagen) and fragmented at 94° C. for 30 min in the buffer containing 0.2 M Tris-acetate (pH 8.1) 0.5 M potassium acetate, and 0.15 M magnesium acetate. Fragmented cRNA was hybridized overnight at 45° C. to the human genome U133A Genechips (Affymetrix) representing approximately 22,215 transcripts. Hybridization was then detected using a confocal laser scanner (Affymetrix). The gene expression levels of samples were normalized and analyzed using RMA analysis (Irizarry et al., 2003).

[4] = system: normal prostate epithelial cells (RWPE-1); experiment: as above; type: cell-based
Procedure: as §1, §2

[5] = system: female SENCAR mice; conditions: topical application; cited from earlier work
[6] = system: E1A-transfected mouse fibroblast NIH 3T3 cells; conditions: E1A-transfected NIH 3T3 cells; cited from earlier work
[7] = system: p21/WAF1/Cip1 protein in cells transfected by the E1A oncogene; conditions: not in untransfected control cells; cited from earlier work
[8] = system: THBS1, PRKAR1A, TOB1, HIF1A mRNA in RWPE-1 and RWPE-2 cells; experiment: Real-time RT-PCR verification of selected genes; type: cell-based, human; conditions: RWPE-1 and RWPE-2 treated with 2 microMoles lunasin; normalized to β-actin
Procedure: HIFIA-hypoxia-inducible factor 1, alpha subunit; PRKARIA-protein kinase, cAMP-dependent, regulatory, type I, alpha; TOB 1-transducer of ERBB2, 1; THSB 1-thrombospondin 1
Quantitative PCR. To confirm microarray data, the total RNA prepared for microarray analysis was used for RT-PCR analysis of selected genes. The cDNA used for quantitative PCR was synthesized from 3 μg of total RNA using the SuperScript First-Strand Synthesis for RT-PCR kit (Invitrogen), following manufacturer's recommendations. The cDNA was diluted 4-fold and 2 μl of cDNA was added to the quantitative PCR reaction using FAM-labeled TaqMan probes purchased from Applied Biosystems. The quantitative PCR reactions were performed in triplicate using a PRISM® ABI 7900HT Sequence Detection System (Applied Biosystems) and the expression of the β-actin gene (BACT) was used for normalization. Changes in expression were calculated using relative quantification as follows: ΔΔCt=ΔCtq−ΔCtcb; where Ct=the cycle number at which amplification rises above the background threshold, ΔCt=the change in Ct between two test samples, q=the target gene, and cb=the calibrator gene. Gene expression is then calculated as 2^−ΔΔ^Ct (Applied Biosystems).

[9] = target: deacetylated histone H4 (Homo sapiens, UniProt P62805); conditions: chemically synthesized lunasin; cited from earlier work
[10] = system: E1A-transfected C3H10T1/2 cells; conditions: cited from earlier work
[11] = system: C3H 10T1/2 mouse embryo fibroblast cells; conditions: lunasin added exogenously at nanomolar concentrations; cited from earlier work
[12] = system: prostate cancer cell lines; conditions: cited from earlier work
[13] = system: normal prostate epithelial cells; conditions: cited from earlier work
[14] = RWPE-1, 24 hour exposure to 2 micromolar lunasin

O=c1c(-c2ccc(O)cc2)coc2cc(O)cc(O)c12 [genistein]
gene expression regulation (microarray) [1]: regulates the expression of genes that are involved in control of cell growth, cell cycle, apoptosis, cell signaling, angiogenesis, tumor cell invasion and metastasis

lunasin
subcellular localization [2]: localize in the nucleus
genes down-regulated ([3]; RWPE-2, 24 h lunasin): No genes were down-regulated
number of genes up-regulated (greater than twofold) ([3]; RWPE-2 malignant cells, 24 h exposure to lunasin peptide): 2 genes
genes down-regulated ([4]; RWPE-1, 24 h lunasin): No genes were down-regulated
Fold-change BNIP3, NIP3 (BCL2/adenovirus E1B 19 kDa interacting prot. 3) [4, 14]: 2.05
Fold-change BUB1B, BUBR1 [4, 14]: 2.23
Fold-change ERBB2IP, ERBIN (erbb2 interacting protein) [4, 14]: 2.23
Fold-change MAD2L1 (MAD2 mitotic arrest deficient-like 1) [4, 14]: 2.12
Fold-change PORIMIN (pro-oncosis receptor inducing membrane injury gene) [4, 14]: 2.26
Fold-change PRKAR1A, PKA (protein kinase, cAMP-dependent, regulatory, type I, alpha) [4, 14]: 2.45
Fold-change PRKCL2, PRK2 (protein kinase C-like 2) [4, 14]: 2.33
Fold-change PSMC6 (proteasome 26S subunit, ATPase, 6) [4, 14]: 2.58
Fold-change RANBP2 (RAN binding protein 2) [4, 14]: 2.36
Fold-change SMURF2 (E3 ubiquitin ligase SMURF2) [4, 14]: 2.29
Fold-change SPTLC1 (serine palmitoyltransferase, long chain base subunit 1) [4, 14]: 2.12
Fold-change THBS1, TSP1 (thrombospondin 1) [4, 14]: 2.05
Fold-change TOB1 (transducer of ERBB2, 1) [4, 14]: 2.32
Fold-change TTK (TTK protein kinase) [4, 14]: 2.08
Fold-change UBE1C (ubiquitin-activating enzyme E1C) [4, 14]: 2.15
Fold-change USP1 (ubiquitin specific protease 1) [4, 14]: 2.23
total number of genes with a greater than twofold change in expression ([4]; RWPE-1 and RWPE-2 together, of up to 22,215 genes screened, 24 h lunasin): 123 genes
number of genes up-regulated (greater than twofold) ([4]; RWPE-1 normal cells, 24 h exposure to lunasin peptide): 121 genes
BTB (POZ) containing domain 1 (ABTB1 or BPOZ) gene regulation (microarray) ([4]; microarray, lunasin treatment): up-regulated
SP3 gene regulation (microarray) ([4]; microarray, lunasin treatment): up-regulated
connexin 43 gap junction protein expression (microarray) ([4]; microarray, lunasin treatment): up-regulates
cyclin D1 regulation (microarray) ([4]; microarray, lunasin treatment): do not show down regulation
hypoxia-inducible factor-1α (HIF1-A) gene regulation (microarray) ([4]; microarray, lunasin treatment): up-regulated
p21/WAF1/Cip1 transcript regulation (microarray) ([4]; microarray, lunasin treatment): did not show up-regulation
skin tumorigenesis [5]: inhibited skin tumorigenesis
foci formation [6]: suppress foci formation
p21/WAF1/Cip1 protein levels [7]: increased by five fold
real-time RT-PCR mRNA level changes of THBS1, PRKAR1A, TOB1, HIF1A [8]: consistent with the microarray data
binding to histone in vitro [9]: preferentially binds deacetylated histone H4
apoptosis induction [10]: induce apoptosis
suppression of chemical carcinogen-induced (DMBA, MCA) foci formation [11]: Significant suppression

B1: BBI: soybean derived serine protease inhibitor with anti-carcinogenic activity (protein, UniProt P01055 40-110, looked up)
Bowman-Birk type proteinase …: DDESSKPCCDQCACTKSNPPQCRCSDMRLNSCHSACKSCICALSYPAQCFCVDITDFCYEPCKPSEDDKEN
growth, invasion and clonogenic survival of prostate cancer cell lines [12]: inhibited the growth, invasion and clonogenic survival
effect on normal prostate epithelial cells [13]: no effect
